Tests used:
Format in all cases: in vivo
[1] = tested on: ragweed (common ragweed, Ambrosia elatior); assay: Test A preemergence; conditions: Ambrosia artemisiifolia, pre-emergence, 240 h; for pest or weed control at 31 g/ha: 31 g ai/ha, 0 to 100 scale (0 no effect, 100 complete control), read-out: Ragweed plant response rating; for pest or weed control at 125 g/ha: 125 g ai/ha
In short: (§1)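 Injury scores run from 0, no effect, to 100, complete control, judged by eye against untreated plants roughly 10 days after treatment. Chemicals carried a surfactant in a non-phytotoxic solvent and went onto loam–sand soil preemergence or onto one- to two-leaf seedlings postemergence.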

[2] = tested on: Italian ryegrass (Lolium multiflorum); assay: Test A preemergence; conditions: Lolium multiflorum, pre-emergence, 240 h; for pest or weed control at 31 g/ha: 31 g ai/ha, 0 to 100 scale (0 no effect, 100 complete control), read-out: Ryegrass, Italian plant response rating; for pest or weed control at 125 g/ha: 125 g ai/ha
In short: as §1

[3] = tested on: pigweed (Amaranthus retroflexus); assay: Test A preemergence; conditions: Amaranthus retroflexus, pre-emergence, 240 h; for pest or weed control at 31 g/ha: 31 g ai/ha, 0 to 100 scale (0 no effect, 100 complete control), read-out: Pigweed plant response rating; for pest or weed control at 125 g/ha: 125 g ai/ha
In short: as §1

[4] = tested on: kochia (Kochia scoparia); assay: Test A preemergence; conditions: Bassia scoparia, pre-emergence, 240 h; for pest or weed control at 31 g/ha: 31 g ai/ha, 0 to 100 scale (0 no effect, 100 complete control), read-out: Kochia plant response rating; for pest or weed control at 125 g/ha: 125 g ai/ha
In short: as §1

[5] = tested on: giant foxtail (Setaria faberii); assay: Test A preemergence; conditions: Setaria faberi, pre-emergence, 240 h; for pest or weed control at 31 g/ha: 31 g ai/ha, 0 to 100 scale (0 no effect, 100 complete control), read-out: Foxtail, Giant plant response rating; for pest or weed control at 125 g/ha: 125 g ai/ha
In short: as §1

[6] = tested on: barnyardgrass (Echinochloa crus-galli); assay: Test A preemergence; conditions: Echinochloa crus-galli, pre-emergence, 240 h; for pest or weed control at 31 g/ha: 31 g ai/ha, 0 to 100 scale (0 no effect, 100 complete control), read-out: Barnyardgrass plant response rating; for pest or weed control at 125 g/ha: 125 g ai/ha
In short: as §1

[7] = tested on: rice (Oryza sativa); assay: Test B flooded paddy; conditions: Oryza sativa, 336 h; 250 g ai/ha, Flood, 13 to 15 days, scale 0 (no effect) to 100 (complete control); read-out: Plant response rating, Rice
In short: (§2)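 Greenhouse pots flooded to 3 cm above soil at time of treatment received compound via the water, which stayed at that level.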

[8] = tested on: sedge, umbrella (small-flower umbrella sedge, Cyperus difformis); assay: Test B flooded paddy; conditions: Cyperus difformis, 336 h; 250 g ai/ha, Flood, 13 to 15 days, scale 0 (no effect) to 100 (complete control); read-out: Plant response rating, Sedge, Umbrella
In short: as §2

[9] = tested on: barnyardgrass (Echinochloa crus-galli); assay: Test B flooded paddy; conditions: Echinochloa crus-galli, 336 h; 250 g ai/ha, Flood, 13 to 15 days, scale 0 (no effect) to 100 (complete control); read-out: Plant response rating, Barnyardgrass
In short: as §2

[10] = tested on: ducksalad (Heteranthera limosa); assay: Test B flooded paddy; conditions: Heteranthera limosa, 336 h; 250 g ai/ha, Flood, 13 to 15 days, scale 0 (no effect) to 100 (complete control); read-out: Plant response rating, Ducksalad
In short: as §2

[11] = tested on: ragweed (common ragweed, Ambrosia elatior); assay: Test A postemergence; conditions: Ambrosia artemisiifolia, post-emergence, 240 h, 0 to 100 scale, read-out: Plant response rating, Ragweed; for pest or weed control at 31 g/ha: 31 g ai/ha; for pest or weed control at 125 g/ha: 125 g ai/ha
In short: as §1

[12] = tested on: Italian ryegrass (Lolium multiflorum); assay: Test A postemergence; conditions: Lolium multiflorum, post-emergence, 240 h, 0 to 100 scale, read-out: Plant response rating, Ryegrass, Italian; for pest or weed control at 31 g/ha: 31 g ai/ha; for pest or weed control at 125 g/ha: 125 g ai/ha
In short: as §1

[13] = tested on: pigweed (Amaranthus retroflexus); assay: Test A postemergence; conditions: Amaranthus retroflexus, post-emergence, 240 h, 0 to 100 scale, read-out: Plant response rating, Pigweed; for pest or weed control at 31 g/ha: 31 g ai/ha; for pest or weed control at 125 g/ha: 125 g ai/ha
In short: as §1

[14] = tested on: galium (catchweed bedstraw, Galium aparine); assay: Test A postemergence; conditions: Galium, post-emergence, 240 h, 0 to 100 scale, read-out: Plant response rating, Galium; for pest or weed control at 31 g/ha: 31 g ai/ha; for pest or weed control at 125 g/ha: 125 g ai/ha
In short: as §1

[15] = tested on: kochia (Kochia scoparia); assay: Test A postemergence; conditions: Bassia scoparia, post-emergence, 240 h, 0 to 100 scale, read-out: Plant response rating, Kochia; for pest or weed control at 31 g/ha: 31 g ai/ha; for pest or weed control at 125 g/ha: 125 g ai/ha
In short: as §1

[16] = tested on: corn (Zea mays); assay: Test A postemergence; conditions: Zea mays, post-emergence, 240 h, 0 to 100 scale; for Corn plant response rating (crop injury, 0 = no effect, 100 = complete kill) at 31 g/ha: 31 g ai/ha; for Corn plant response rating (crop injury, 0 = no effect, 100 = complete kill) at 125 g/ha: 125 g ai/ha
In short: as §1

[17] = tested on: giant foxtail (Setaria faberii); assay: Test A postemergence; conditions: Setaria faberi, post-emergence, 240 h, 0 to 100 scale, read-out: Plant response rating, Foxtail, Giant; for pest or weed control at 31 g/ha: 31 g ai/ha; for pest or weed control at 125 g/ha: 125 g ai/ha
In short: as §1

[18] = tested on: wheat (Triticum aestivum); assay: Test A postemergence; conditions: Triticum aestivum, post-emergence, 240 h, 0 to 100 scale, read-out: Plant response rating, Wheat; for plant injury at 31 g/ha: 31 g ai/ha; for plant injury at 125 g/ha: 125 g ai/ha
In short: as §1

[19] = tested on: barnyardgrass (Echinochloa crus-galli); assay: Test A postemergence; conditions: Echinochloa crus-galli, post-emergence, 240 h, 0 to 100 scale, read-out: Plant response rating, Barnyardgrass; for pest or weed control at 31 g/ha: 31 g ai/ha; for pest or weed control at 125 g/ha: 125 g ai/ha
In short: as §1

[20] = tested on: blackgrass (Alopecurus myosuroides); assay: Test A postemergence; conditions: Alopecurus myosuroides, post-emergence, 240 h, 0 to 100 scale, read-out: Plant response rating, Blackgrass; for pest or weed control at 31 g/ha: 31 g ai/ha; for pest or weed control at 125 g/ha: 125 g ai/ha
In short: as §1

[21] = 0 to 100 scale, read-out: Plant response rating, Ragweed
[22] = 0 to 100 scale, read-out: Plant response rating, Ryegrass, Italian
[23] = 0 to 100 scale, read-out: Plant response rating, Pigweed
[24] = 0 to 100 scale, read-out: Plant response rating, Kochia
[25] = 0 to 100 scale, read-out: Plant response rating, Foxtail, Giant
[26] = 0 to 100 scale, read-out: Plant response rating, Barnyardgrass

`FC(F)c1cnc(Oc2c(Br)cccc2Oc2ncc(Cl)cn2)s1` [Compound 10, 2-[3-bromo-2-[[5-(difluoromethyl)-2-thiazolyl]oxy]phenoxy]-5-chloropyrimidine] showed a pest or weed control at 31 g/ha [1] of 0%, a pest or weed control at 125 g/ha [1, 21] of 0% and a pest or weed control at 31 g/ha [2] of 0%. For the same molecule, the pest or weed control at 125 g/ha [2, 22] was 40%, the pest or weed control at 31 g/ha [3] was 90% and the pest or weed control at 125 g/ha [3, 23] was 100%. For the same molecule, the pest or weed control at 31 g/ha [4] was 0%, the pest or weed control at 125 g/ha [4, 24] was 50% and the pest or weed control at 31 g/ha [5] was 40%. For the same molecule, the pest or weed control at 125 g/ha [5, 25] was 90%, the pest or weed control at 31 g/ha [6] was 0% and the pest or weed control at 125 g/ha [6, 26] was 30%. It also gave a plant injury at 250 g/ha [7] of 0%, a pest or weed control at 250 g/ha [8] of 0% and a pest or weed control at 250 g/ha [9] of 0%. The pest or weed control at 250 g/ha [10] was 0%, the pest or weed control at 31 g/ha [11] was 0% and the pest or weed control at 125 g/ha [11] was 30%. It also gave a pest or weed control at 31 g/ha [12] of 0%, a pest or weed control at 125 g/ha [12] of 60% and a pest or weed control at 31 g/ha [13] of 90%. It also gave a pest or weed control at 125 g/ha [13] of 100%, a pest or weed control at 31 g/ha [14] of 50% and a pest or weed control at 125 g/ha [14] of 100%. The pest or weed control at 31 g/ha [15] was 20%, the pest or weed control at 125 g/ha [15] was 80% and the Corn plant response rating (crop injury, 0 = no effect, 100 = complete kill) at 31 g/ha [16] was 0%. For the same molecule, the Corn plant response rating (crop injury, 0 = no effect, 100 = complete kill) at 125 g/ha [16] was 10%, the pest or weed control at 31 g/ha [17] was 0% and the pest or weed control at 125 g/ha [17] was 20%. For the same molecule, the plant injury at 31 g/ha [18] was 0%, the plant injury at 125 g/ha [18] was 0% and the pest or weed control at 31 g/ha [19] was 0%. For the same molecule, the pest or weed control at 125 g/ha [19] was 20%, the pest or weed control at 31 g/ha [20] was 10% and the pest or weed control at 125 g/ha [20] was 70%.

Work on `N#Cc1cccc(Oc2ncc(Br)cn2)c1Oc1ccc(Cl)cn1` [Compound 11] yielded a pest or weed control at 31 g/ha [1] of 0%, a pest or weed control at 125 g/ha [1, 21] of 0% and a pest or weed control at 500 g/ha ([1]; 500 g ai/ha, 0 to 100 scale, read-out: Plant response rating, Ragweed) of 10%. It also gave a pest or weed control at 31 g/ha [2] of 0%, a pest or weed control at 125 g/ha [2, 22] of 10% and a pest or weed control at 500 g/ha ([2]; 500 g ai/ha, 0 to 100 scale, read-out: Plant response rating, Ryegrass, Italian) of 90%. It also gave a pest or weed control at 31 g/ha [3] of 90%, a pest or weed control at 125 g/ha [3, 23] of 100% and a pest or weed control at 500 g/ha ([3]; 500 g ai/ha, 0 to 100 scale, read-out: Plant response rating, Pigweed) of 100%. The pest or weed control at 31 g/ha [4] was 10%, the pest or weed control at 125 g/ha [4, 24] was 75% and the pest or weed control at 500 g/ha ([4]; 500 g ai/ha, 0 to 100 scale, read-out: Plant response rating, Kochia) was 100%. For the same molecule, the pest or weed control at 31 g/ha [5] was 20%, the pest or weed control at 125 g/ha [5, 25] was 100% and the pest or weed control at 500 g/ha ([5]; 500 g ai/ha, 0 to 100 scale, read-out: Plant response rating, Foxtail, Giant) was 100%. It also gave a pest or weed control at 31 g/ha [6] of 0%, a pest or weed control at 125 g/ha [6, 26] of 80% and a pest or weed control at 500 g/ha ([6]; 500 g ai/ha, 0 to 100 scale, read-out: Plant response rating, Barnyardgrass) of 100%. It also gave a plant injury at 250 g/ha [7] of 0%, a pest or weed control at 250 g/ha [8] of 85% and a pest or weed control at 250 g/ha [9] of 0%. For the same molecule, the pest or weed control at 250 g/ha [10] was 100%, the pest or weed control at 31 g/ha [11] was 0% and the pest or weed control at 125 g/ha [11] was 10%. It also gave a pest or weed control at 500 g/ha ([11]; 500 g ai/ha) of 10%, a pest or weed control at 31 g/ha [12] of 0% and a pest or weed control at 125 g/ha [12] of 25%. It also gave a pest or weed control at 500 g/ha ([12]; 500 g ai/ha) of 90%, a pest or weed control at 31 g/ha [13] of 100% and a pest or weed control at 125 g/ha [13] of 100%. The pest or weed control at 500 g/ha ([13]; 500 g ai/ha) was 100%, the pest or weed control at 31 g/ha [14] was 70% and the pest or weed control at 125 g/ha [14] was 100%. The pest or weed control at 500 g/ha ([14]; 500 g ai/ha) was 100%, the pest or weed control at 31 g/ha [15] was 40% and the pest or weed control at 125 g/ha [15] was 95%. The pest or weed control at 500 g/ha ([15]; 500 g ai/ha) was 100%, the Corn plant response rating (crop injury, 0 = no effect, 100 = complete kill) at 31 g/ha [16] was 10% and the Corn plant response rating (crop injury, 0 = no effect, 100 = complete kill) at 125 g/ha [16] was 30%. The Corn plant response rating (crop injury, 0 = no effect, 100 = complete kill) at 500 g/ha ([16]; 500 g ai/ha) was 100%, the pest or weed control at 31 g/ha [17] was 0% and the pest or weed control at 125 g/ha [17] was 95%. It also gave a pest or weed control at 500 g/ha ([17]; 500 g ai/ha) of 100%, a plant injury at 31 g/ha [18] of 20% and a plant injury at 125 g/ha [18] of 50%. The plant injury at 500 g/ha ([18]; 500 g ai/ha) was 90%, the pest or weed control at 31 g/ha [19] was 0% and the pest or weed control at 125 g/ha [19] was 80%. For the same molecule, the pest or weed control at 500 g/ha ([19]; 500 g ai/ha) was 100%, the pest or weed control at 31 g/ha [20] was 10% and the pest or weed control at 125 g/ha [20] was 90%. The pest or weed control at 500 g/ha ([20]; 500 g ai/ha) was 100%.
